Measured values reported in patent publication US9932637B2, “Genetic polymorphisms associated with cardiovascular disorders and drug response, methods of detection and uses thereof” (CELERA CORPORATION, priority 2003, dated 2018).
Where “and” joins values, the source holds several entries; their conditions need not be identical. Identical values can stand only once.

Tested on: patients with prior myocardial infarction (CARE study)
Experiment: CARE aligned analysis (prospective and case/control design, white males): association of genotypes with pravastatin efficacy (Tables 13, 15)
Type: in vivo, human
Details: for Pravastatin vs placebo odds ratio, 1 rare allele / Pravastatin vs placebo odds ratio, 2 rare alleles / 2 rare alleles n/total (%), pravastatin patients / Pravastatin vs placebo odds ratio, 0 rare alleles: CARE, F MI/SD/NF MI; for Pravastatin Patients (%) / Pravastatin Patients n/total: F&NF MI, WM
Description: The data presented in Table 8 based on an association of genotypes with pravastatin efficacy of the CARE samples were further analyzed and presented in Table 13. The further analysis was performed to align the data obtained from the analysis of the CARE samples, which was a prospective study, to the analysis of the WOSCOP samples, which was a case/control study. Table 13 also presents an analysis of the association of genotypes with pravastatin efficacy in the WOSCOPs samples. Relative to the analysis performed on the data presented in Table 8, there are two significant differences to determine if the SNP influenced pravastatin efficacy. Data obtained from the CARE samples were separated by study design into two groups, those in the prospective study design group and those in the case/control study design group. The original care study contained 16 protocol defined cardiovascular disease defined endpoints and 150 other phenotypes. […] The control groups used to compare the data were also divided into two groups, the “all possible” control group and the “cleaner” control group. […] Because the participants in the WOSCOPs trial were all white males, only data obtained from white males in the CARE study were analysed. Data from the “all possible” and “cleaner” controls were compared to data obtained from the cases in the prospective study design while only data from “cleaner” controls were compared to cases in the case/control study design. The data from the case/control cohorts were analysed using conditional logistic regression (as opposed to logistic regression used for the original anaylsis).
The anaylsis was refined as described for both Tables 13 and 14.

[1] = IL9 hCV3275199, 0 Rare Alleles, CARE Case/Control, All Possible controls
[2] = IL9 hCV3275199, 0 Rare Alleles, CARE Case/Control, Cleaner controls
[3] = IL9 hCV3275199, 0 Rare Alleles, CARE Prospective, All Possible controls
[4] = IL9 hCV3275199, 0 Rare Alleles, CARE Prospective, Cleaner controls
[5] = IL9 hCV3275199, 1 Rare Allele, CARE Case/Control, All Possible controls
[6] = IL9 hCV3275199, 1 Rare Allele, CARE Case/Control, Cleaner controls
[7] = IL9 hCV3275199, 1 Rare Allele, CARE Prospective, All Possible controls
[8] = IL9 hCV3275199, 1 Rare Allele, CARE Prospective, Cleaner controls
[9] = ITGA4 hCV7618856, 0 Rare Alleles, CARE Case/Control, Cleaner controls
[10] = ITGA4 hCV7618856, 1 Rare Allele, CARE Case/Control, All Possible controls
[11] = ITGA4 hCV7618856, 1 Rare Allele, CARE Case/Control, Cleaner controls
[12] = ITGA4 hCV7618856, 1 Rare Allele, CARE Prospective, All Possible controls
[13] = KDR hCV16192174, 0 Rare Alleles, CARE Case/Control, All Possible controls
[14] = KDR hCV16192174, 0 Rare Alleles, CARE Case/Control, Cleaner controls
[15] = KDR hCV16192174, 0 Rare Alleles, CARE Prospective, All Possible controls
[16] = KDR hCV16192174, 0 Rare Alleles, CARE Prospective, Cleaner controls
[17] = KDR hCV16192174, 1 Rare Allele, CARE Case/Control, All Possible controls
[18] = KDR hCV16192174, 1 Rare Allele, CARE Case/Control, Cleaner controls
[19] = KDR hCV16192174, 1 Rare Allele, CARE Prospective, All Possible controls
[20] = KDR hCV16192174, 1 Rare Allele, CARE Prospective, Cleaner controls
[21] = KDR hCV22271999, 0 Rare Alleles, CARE Case/Control, All Possible controls
[22] = KDR hCV22271999, 0 Rare Alleles, CARE Case/Control, Cleaner controls
[23] = KDR hCV22271999, 0 Rare Alleles, CARE Prospective, All Possible controls
[24] = KDR hCV22271999, 0 Rare Alleles, CARE Prospective, Cleaner controls
[25] = KDR hCV22271999, 1 Rare Allele, CARE Case/Control, All Possible controls
[26] = KDR hCV22271999, 1 Rare Allele, CARE Case/Control, Cleaner controls
[27] = KDR hCV22271999, 1 Rare Allele, CARE Prospective, All Possible controls
[28] = KDR hCV22271999, 1 Rare Allele, CARE Prospective, Cleaner controls

For `CC[C@H](C)C(=O)O[C@H]1C[C@H](O)C=C2C=C[C@H](C)[C@H](CC[C@@H](O)C[C@@H](O)CC(=O)O)[C@H]21` [pravastatin], the “Pravastatin vs placebo odds ratio, 1 rare allele” value (IL4R hCV2769554, Case/Control) was 0.74 and 0.64, the “Pravastatin vs placebo odds ratio, 2 rare alleles” value (IL4R hCV2769554, Case/Control) was 1.66 and 1.52 and the “Pravastatin Patients (%)” value [1] was “(12.4%)”. For the same compound, the “Pravastatin Patients n/total” value [1] was 111/896, the “Pravastatin Patients (%)” value [2] was “(17.5%)” and the “Pravastatin Patients n/total” value [2] was 111/633. For the same compound, the “Pravastatin Patients (%)” value [3] was “(12.2%)”, the “Pravastatin Patients n/total” value [3] was 111/911 and the “Pravastatin Patients (%)” value [4] was “(17.2%)”. For the same compound, the “Pravastatin Patients n/total” value [4] was 111/644, the “Pravastatin Patients (%)” value [5] was “(5.3%)” and the “Pravastatin Patients n/total” value [5] was 15/283. The “Pravastatin Patients (%)” value [6] was “(8.2%)”, the “Pravastatin Patients n/total” value [6] was 15/184 and the “Pravastatin Patients (%)” value [7] was “(5.2%)”. For the same compound, the “Pravastatin Patients n/total” value [7] was 15/290, the “Pravastatin Patients (%)” value [8] was “(8.0%)” and the “Pravastatin Patients n/total” value [8] was 15/187. The “Pravastatin Patients (%)” value (ITGA4 hCV7618856, 0 Rare Alleles, CARE Case/Control, All Possible controls) was “(10.1%)”, the “Pravastatin Patients (%)” value [9] was “(14.7%)” and the “Pravastatin Patients n/total” value [9] was 120/817. For the same compound, the “Pravastatin Patients (%)” value (ITGA4 hCV7618856, 0 Rare Alleles, CARE Prospective, All Possible controls) was “(10.0%)”, the “Pravastatin Patients (%)” value [10] was “(25.0%)” and the “Pravastatin Patients n/total” value [10] was 5/20. For the same compound, the “Pravastatin Patients (%)” value [11] was “(31.3%)”, the “Pravastatin Patients n/total” value [11] was 5/16 and the “Pravastatin Patients (%)” value [12] was “(23.8%)”. For the same compound, the “Pravastatin Patients n/total” value [12] was 5/21, the “2 rare alleles n/total (%), pravastatin patients” value (ITGAE hCV1243283, Case/Control) was “(8.0%)” and the “Pravastatin vs placebo odds ratio, 0 rare alleles” value (ITGAE hCV1243283, Case/Control) was 0.79. For the same compound, the “Pravastatin vs placebo odds ratio, 1 rare allele” value (ITGAE hCV1243283, Case/Control) was 0.84, the “Pravastatin vs placebo odds ratio, 2 rare alleles” value (ITGAE hCV1243283, Case/Control) was 0.24 and the “Pravastatin Patients (%)” value [13] was “(9.0%)”. For the same compound, the “Pravastatin Patients n/total” value [13] was 87/971, the “Pravastatin Patients (%)” value [14] was “(13.1%)” and the “Pravastatin Patients n/total” value [14] was 87/666. For the same compound, the “Pravastatin Patients (%)” value [15] was “(8.8%)”, the “Pravastatin Patients n/total” value [15] was 87/985 and the “Pravastatin Patients (%)” value [16] was “(12.9%)”. For the same compound, the “Pravastatin Patients n/total” value [16] was 87/675, the “Pravastatin Patients (%)” value [17] was “(17.2%)” and the “Pravastatin Patients n/total” value [17] was 39/227. The “Pravastatin Patients (%)” value [18] was “(23.9%)”, the “Pravastatin Patients n/total” value [18] was 39/163 and the “Pravastatin Patients (%)” value [19] was “(16.6%)”. The “Pravastatin Patients n/total” value [19] was 39/235, the “Pravastatin Patients (%)” value [20] was “(23.2%)” and the “Pravastatin Patients n/total” value [20] was 39/168. For the same compound, the “Pravastatin vs placebo odds ratio, 0 rare alleles” value (KDR hCV16192174, Case/Control) was 0.66 and 0.58, the “Pravastatin vs placebo odds ratio, 1 rare allele” value (KDR hCV16192174, Case/Control) was 1.68 and the “Pravastatin vs placebo odds ratio, 2 rare alleles” value (KDR hCV16192174, Case/Control) was 0.41 and 0.35. For the same compound, the “2 rare alleles n/total (%), pravastatin patients” value (KDR hCV16192174, Prospective) was “(10.0%)”, the “Pravastatin vs placebo odds ratio, 0 rare alleles” value (KDR hCV16192174, Prospective) was 0.61 and the “Pravastatin vs placebo odds ratio, 1 rare allele” value (KDR hCV16192174, Prospective) was 1.41. The “Pravastatin vs placebo odds ratio, 2 rare alleles” value (KDR hCV16192174, Prospective) was 0.30, the “Pravastatin Patients (%)” value [21] was “(9.0%)” and the “Pravastatin Patients n/total” value [21] was 87/969. For the same compound, the “Pravastatin Patients (%)” value [22] was “(13.1%)”, the “Pravastatin Patients n/total” value [22] was 87/665 and the “Pravastatin Patients (%)” value [23] was “(8.9%)”. For the same compound, the “Pravastatin Patients n/total” value [23] was 87/983, the “Pravastatin Patients (%)” value [24] was “(12.9%)” and the “Pravastatin Patients n/total” value [24] was 87/674. For the same compound, the “Pravastatin Patients (%)” value [25] was “(17.3%)”, the “Pravastatin Patients n/total” value [25] was 39/226 and the “Pravastatin Patients (%)” value [26] was “(24.1%)”. For the same compound, the “Pravastatin Patients n/total” value [26] was 39/162, the “Pravastatin Patients (%)” value [27] was “(16.7%)” and the “Pravastatin Patients n/total” value [27] was 39/234. For the same compound, the “Pravastatin Patients (%)” value [28] was “(23.4%)” and the “Pravastatin Patients n/total” value [28] was 39/167.
